Results: patent publication US12678436B2, “Pharmaceutical composition for preventing or treating fibrosis” (Daewoong Pharmaceutical Co., Ltd., priority 2021, dated 2026)

Assays:
[1] = test system: animal model of pulmonary fibrosis; assay: Lung function evaluation (SpO2) in BLM-administered mice; format: in vivo; conditions: for SpO2: 2 weeks, 21st day after BLM
Experimental: (§1) 70-100 μL of BLM solution (bleomycin 1-3 mg/kg) was administered to a lung of the acclimatized experimental animals using a catheter for 5 days or more. In accordance with the purpose of the test, the test drug was administered 7 days after BLM administration, and the drug was orally administered for 2 weeks until the 21st day of BLM administration. Body weight, SpO2, hydroxyproline, and inflammation cell counts were measured to determine the anti-fibrotic efficacy of the active component.
(§2) As a control group, Nintedanib (hereinafter ‘NIN’) and Pirfenidone (hereinafter ‘PID’), which are standard of care (hereinafter ‘SoC’) for idiopathic pulmonary fibrosis, were used. The effective dose of NIN used was confirmed through in vivo efficacy data in the literature published by Boehringer Ingelheim, which is a NIN development company, and the effective dose of PID was set in terms of mice based on in vivo efficacy (rat) data and 2-week repeated toxicity dose (rat) in FDA Pharmacology Review.
This lung function evaluation is the most direct and important evaluation index that has the greatest influence on the symptoms and quality of life of patients with pulmonary fibrosis, and is an experiment that can most directly show the effect of improving lung function in an animal model of pulmonary fibrosis by measuring the oxygen concentration in the body.
On the 21st day, it was measured with a SpO2 measuring device (Berry, Veterinary Pulse Oximeter) via the abdominal side of the mouse, and the results are shown in Table 2 and FIG. 1.

[2] = test system: animal model of pulmonary fibrosis; assay: Measurement of total collagen content in lung (INSOLUBLE Collagen Assay); format: in vivo, mice; conditions: for collagen content in lung (hydroxyproline ratio value compared with normal group): 21st day
Experimental: as §1, §2
Pulmonary fibrosis is the accumulation of collagen in the lungs to make it stiff. The main cause of pulmonary fibrosis is the accumulation of collagen, and the degree of progression of fibrosis can be predicted by measuring the collagen content in the lung tissue.
In this experimental example, analysis was performed using INSOLUBLE Collagen Assay (Biocolor, S2000). After sacrifice on the 21st day, the cryopreserved lung tissue was pulverized by adding 100 uL of Fragmentation Reagent, and then, 100 uL of 37% HCl was added and incubated at 65°C. for 3 hours. The contents of the tube were shaken at 30 minute intervals to aid tissue disintegration. After centrifugation, the concentration was adjusted to 100 μL and collagen staining was proceeded to prepare a sample. Absorbance was measured at 560 nm.

[3] = test system: animal model of pulmonary fibrosis; assay: Histopathology (Ashcroft score) analysis of lung tissue; format: in vivo, mice; conditions: for Fibrotic Index (±SEM): 21st day, 9 individuals
Experimental: as §1, §2
The degree of fibrosis and inflammation of the lung tissue were visually observed through a microscope, and the degree of fibrosis of lung tissue was measured with a Fibrotic Index according to normalized criteria. The higher the Fibrotic Index value, the more severe the degree and symptom of fibrosis. It is interpreted that as the value is lower, the symptom is relieved.
On the 21st day, lung tissue was separated and stained using H&E and MT stain, and observed at 200× magnification. The observed results were scored by Ashcroft (Hubner et al., 2008). The fibrotic index was calculated by dividing the sum of the adjusted Ashcroft field scores by the number of fields tested, and shown in Table 4 and FIG. 3.

[4] = test system: animal model of pulmonary fibrosis; assay: Inflammation cell count analysis in BALF; format: in vivo, mice; conditions: for Lymphocyte (BALF cell count) / Macrophage (BALF cell count) / Neutrophil (BALF cell count) / Total cell (BALF cell count): 21st day
Experimental: as §1, §2
Since fibrosis is a chronic inflammatory disease characterized by excessive collagen deposition, the infiltration of inflammatory cells was analyzed to determine the degree of inflammation in the lung tissue.
At the sacrifice on the 21st day of administration, BALF (Bronchoalveolar lavage fluid) cells obtained through airway washing of mice were diluted with 1.05×PBS and attached to a slide, and then the slide was immersed and removed for 30 seconds in the order of 1, 2, 3 diff quick stain solution, and stained. It was counted based on 500 cells. Macrophages are the largest in size, mononuclear, and stained blue. Neutrophils and eosinophils form polynuclear cells, but eosinophils are stained red with eosin and distinguished from neutrophils. Lymphocytes have very less cytoplasm and are small in size as monocytes.

[5] = Measurement of change in body weight in BLM-administered mice; format: in vivo; conditions: for change in body weight: 21st day
Experimental: as §1, §2
Body weight is an indirect indicator that can know the degree of improvement in the overall physical condition of the animal model. When the degree of weight loss is small, it can be inferred that the overall physical condition or symptoms of the disease are improved.
The body weight was measured using a scale on the 21st day when the administration was completed, and the results are shown in Table 6 and FIG. 5 below.

[6] = test system: ICR mice; assay: 2-week repeated dose toxicity test in mice; format: in vivo; conditions: for SPLEEN % to BODY WEIGHT / SPLEEN weight / THYMUS % to BODY WEIGHT / THYMUS weight: 2 weeks, male ICR mice
Experimental: The active component was orally administered to acclimatized ICR mice for 7 days or more for 2 weeks.
After administration for 2 weeks, autopsies were performed on all animals. At autopsy, the weight of each organ was measured.

[7] = Pharmacokinetic test after single oral administration in ICR mice; format: in vivo; conditions: mouse, blood; ICR mice (male), single oral 10 mg/kg, saline
Experimental: The pharmacokinetic parameters were calculated using Excel® and WinNonlin6.1 software for the blood drug concentration according to the change over time obtained through LC-MS/MS, and changes in the blood concentration of the active component are shown in Table 9 and FIG. 6.

[8] = Human pharmacokinetics, single administration (SAD); format: in vivo; conditions: median; healthy adults, single oral 500 mg, enteric coated tablet, N = 6
Experimental: (§3) The formulation used in the clinical trial was prepared in the same manner as in Preparation Examples 1 and 2.

[9] = Human pharmacokinetics, multiple administration (MAD), Day 14; format: in vivo; conditions: for Accumulation ratio based on AUCT: Day 14, N = 6; for AUC(0-t): human, plasma, oral
Experimental: as §3

[10] = test system: healthy adults; assay: Human administration safety/drug tolerance; format: in vivo
Experimental: as §3
The safety and drug resistance of the compound of the present invention during administration to humans was confirmed in the same manner as in Experimental Example 4.

## O[C@H]1CCCN[C@@H]1CCCn1cnc2c(Cl)c(Cl)ccc21 [Active component]
[1]; 10 mg/kg
  oxygen permeation function improved compared with Vehicle: ≥ 18%
[1]; 30 mg/kg
  oxygen permeation function improved compared with Vehicle: ≥ 28%
[1]; Active component 3 mg/kg oral
  SpO2: 75.00
[1]; Active component 10 mg/kg oral
  SpO2: 77.89
[1]; Active component 30 mg/kg oral
  SpO2: 81.33
[2]; 10 mg/kg
  content of collagen in the lung compared to Vehicle: significantly reduced
[2]; 30 mg/kg
  content of collagen in the lung compared to Vehicle: significantly reduced
[2]; Active component 3 mg/kg oral
  collagen content in lung (hydroxyproline ratio value compared with normal group): 253.56
[2]; Active component 10 mg/kg oral
  collagen content in lung (hydroxyproline ratio value compared with normal group): 217.22
[2]; Active component 30 mg/kg oral
  collagen content in lung (hydroxyproline ratio value compared with normal group): 171.33
[3]; 10 mg/kg
  tissue improvement effect compared with NIN and PID: tissue improvement effect equivalent to or greater than that of NIN
[3]; 30 mg/kg
  tissue improvement effect compared with NIN and PID: tissue improvement effect equivalent to or greater than that of NIN
[3]; Active component 3 mg/kg oral
  Fibrotic Index (±SEM): 4.6 (±0.3)
[3]; Active component 10 mg/kg oral
  Fibrotic Index (±SEM): 2.7 (±0.6)
[3]; Active component 30 mg/kg oral
  Fibrotic Index (±SEM): 2.8 (±0.4)
[4]; 10 mg/kg
  number of Neutrophil cells decreased compared to Vehicle: ≥ 20%
  total cell level improved compared to Vehicle: ≥ 20%
[4]; 30 mg/kg
  number of Neutrophil cells decreased compared to Vehicle: ≥ 60%
  total cell level improved compared to Vehicle: ≥ 30%
[4]; Active component 3 mg/kg oral
  Lymphocyte (BALF cell count): 0.79
  Macrophage (BALF cell count): 7.80
  Neutrophil (BALF cell count): 1.74
  Total cell (BALF cell count): 10.32
[4]; Active component 10 mg/kg oral
  Lymphocyte (BALF cell count): 0.51
  Macrophage (BALF cell count): 5.60
  Neutrophil (BALF cell count): 1.54
  Total cell (BALF cell count): 7.66
[4]; Active component 30 mg/kg oral
  Lymphocyte (BALF cell count): 0.46
  Macrophage (BALF cell count): 4.91
  Neutrophil (BALF cell count): 0.82
  Total cell (BALF cell count): 6.19
[5]; 10 mg/kg
  degree of body weight loss compared with Vehicle group: improved
[5]; 30 mg/kg
  degree of body weight loss compared with Vehicle group: improved
[5]; Active component 3 mg/kg oral
  change in body weight: −22.44
[5]; Active component 10 mg/kg oral
  change in body weight: −19.11
[5]; Active component 30 mg/kg oral
  change in body weight: −16.78
[6]; 30 mg/kg/day oral
  SPLEEN % to BODY WEIGHT: 0.22%
  SPLEEN weight: 0.059
  THYMUS % to BODY WEIGHT: 0.10%
  THYMUS weight: 0.026
[6]; 60 mg/kg/day oral
  SPLEEN % to BODY WEIGHT: 0.25%
  SPLEEN weight: 0.070
  THYMUS % to BODY WEIGHT: 0.11%
  THYMUS weight: 0.029
[6]; 30, 60, 120→90 mg/kg/day oral, ICR mice
  toxicity / abnormal symptoms after repeated administration for 2 weeks: No toxicity or significant abnormal symptoms
[6]; 120→90 mg/kg/day oral
  SPLEEN % to BODY WEIGHT: 0.17%
  SPLEEN weight: 0.046
  THYMUS % to BODY WEIGHT: 0.05%
  THYMUS weight: 0.015
[6]; administration group of 30 mg/kg/day or more
  organ weight of spleen and thymus: slight weight loss tendency
[7]
  AUC: 1190 ng·h/mL
[8]
  tmax: 3.01 h
[9]; 25 mg tablet twice a day
  Accumulation ratio based on AUCT: 1.94
[9]; 50 mg tablet twice a day
  Accumulation ratio based on AUCT: 2.33
[9]; 100 mg tablet twice a day, Day 14, 12 hour dosing interval, N = 6
  AUCT: 617.40 ng·h/mL
[9]; 100 mg tablet twice a day
  Accumulation ratio based on AUCT: 1.88
[9]; 200 mg tablet twice a day
  Accumulation ratio based on AUCT: 3.75
[9]; 25 mg tablet twice a day, Day 14, 12 hour dosing interval, N = 6
  AUC(0-t): 183 ng·h/mL
[9]; 50 mg tablet twice a day, Day 14, 12 hour dosing interval, N = 6
  AUC(0-t): 429 ng·h/mL
[9]; 200 mg tablet twice a day, Day 14, 12 hour dosing interval, N = 6
  AUC(0-t): 3010 ng·h/mL
[10]; 72 healthy adults, single 100-600 mg and multiple 25-200 mg twice a day
  serious abnormal signs or side effects in clinical trial: no serious abnormal signs or side effects
[10]; single administration, healthy adults
  most frequent adverse reactions: gastrointestinal adverse events including nausea, vomiting, diarrhea and abdominal pain

## COC(=O)c1ccc2c(c1)NC(=O)/C2=C(\Nc1ccc(N(C)C(=O)CN2CCN(C)CC2)cc1)c1ccccc1 [Nintedanib, reference compound]
[1]; Nintedanib 60 mg/kg oral
  SpO2: 78.67
[2]; Nintedanib 60 mg/kg oral
  collagen content in lung (hydroxyproline ratio value compared with normal group): 239.78
[3]; Nintedanib 60 mg/kg oral
  Fibrotic Index (±SEM): 3.1 (±0.6)
[4]; Nintedanib 60 mg/kg oral
  Lymphocyte (BALF cell count): 0.68
  Macrophage (BALF cell count): 5.61
  Neutrophil (BALF cell count): 1.29
  Total cell (BALF cell count): 7.57
[5]; Nintedanib 60 mg/kg oral
  change in body weight: −19.44

## Cc1ccc(=O)n(-c2ccccc2)c1 [Pirfenidone, reference compound]
[1]; Pirfenidone 200 mg/kg oral
  SpO2: 82.00
[2]; Pirfenidone 200 mg/kg oral
  collagen content in lung (hydroxyproline ratio value compared with normal group): 177.44
[3]; Pirfenidone 200 mg/kg oral
  Fibrotic Index (±SEM): 4.1 (±0.3)
[4]; Pirfenidone 200 mg/kg oral
  Lymphocyte (BALF cell count): 0.46
  Macrophage (BALF cell count): 5.01
  Neutrophil (BALF cell count): 0.68
  Total cell (BALF cell count): 6.14
[5]; Pirfenidone 200 mg/kg oral
  change in body weight: −14.67
